The NIST ThermoML archive (doi:10.1016/j.tca.2013.09.032)
Numbers after ± are expanded uncertainties.

Test: molar heat capacity at constant pressure
Conditions: 101.33 kPa, Crystal, Vacuum adiabatic calorimetry

Cc1cc2nc3c(=O)[nH]c(=O)nc-3n(C[C@H](O)[C@H](O)[C@H](O)CO)c2cc1C [riboflavin]
molar heat capacity at constant pressure (1 K): 0.0523 ± 0.011 J/K/mol | molar heat capacity at constant pressure (2 K): 0.209 ± 0.013 J/K/mol | molar heat capacity at constant pressure (3 K): 0.47 ± 0.016 J/K/mol | molar heat capacity at constant pressure (4 K): 0.836 ± 0.02 J/K/mol | molar heat capacity at constant pressure (5 K): 1.31 ± 0.024 J/K/mol | molar heat capacity at constant pressure (6 K): 1.88 ± 0.03 J/K/mol | molar heat capacity at constant pressure (6.75 K): 2.55 ± 0.03 J/K/mol | molar heat capacity at constant pressure (7 K): 2.65 ± 0.035 J/K/mol | molar heat capacity at constant pressure (7.32 K): 2.83 ± 0.04 J/K/mol | molar heat capacity at constant pressure (8 K): 3.25 ± 0.039 J/K/mol | molar heat capacity at constant pressure (8.41 K): 3.45 ± 0.04 J/K/mol | molar heat capacity at constant pressure (8.94 K): 4.08 ± 0.05 J/K/mol | molar heat capacity at constant pressure (9 K): 4.08 ± 0.047 J/K/mol | molar heat capacity at constant pressure (9.34 K): 4.48 ± 0.05 J/K/mol | molar heat capacity at constant pressure (9.68 K): 4.81 ± 0.05 J/K/mol | molar heat capacity at constant pressure (10 K): 5.1 ± 0.054 J/K/mol | molar heat capacity at constant pressure (10.15 K): 5.25 ± 0.05 J/K/mol | molar heat capacity at constant pressure (10.36 K): 5.42 ± 0.06 J/K/mol | molar heat capacity at constant pressure (10.98 K): 6.23 ± 0.06 J/K/mol | molar heat capacity at constant pressure (11.56 K): 7.05 ± 0.07 J/K/mol | molar heat capacity at constant pressure (11.98 K): 7.68 ± 0.07 J/K/mol | molar heat capacity at constant pressure (13.16 K): 9.25 ± 0.08 J/K/mol | molar heat capacity at constant pressure (15 K): 12 ± 0.1 J/K/mol | molar heat capacity at constant pressure (15.03 K): 12.22 ± 0.1 J/K/mol | molar heat capacity at constant pressure (16.92 K): 15.24 ± 0.11 J/K/mol | molar heat capacity at constant pressure (18.77 K): 18.25 ± 0.12 J/K/mol | molar heat capacity at constant pressure (20 K): 20.35 ± 0.13 J/K/mol | molar heat capacity at constant pressure (20.65 K): 21.38 ± 0.13 J/K/mol | molar heat capacity at constant pressure (22.79 K): 25.35 ± 0.14 J/K/mol | molar heat capacity at constant pressure (24.95 K): 29.29 ± 0.15 J/K/mol | molar heat capacity at constant pressure (25 K): 29.5 ± 0.15 J/K/mol | molar heat capacity at constant pressure (27.13 K): 33.81 ± 0.15 J/K/mol | molar heat capacity at constant pressure (29.37 K): 38.36 ± 0.15 J/K/mol | molar heat capacity at constant pressure (30 K): 39.49 ± 0.13 J/K/mol | molar heat capacity at constant pressure (31.61 K): 42.49 ± 0.13 J/K/mol | molar heat capacity at constant pressure (33.91 K): 47.31 ± 0.14 J/K/mol | molar heat capacity at constant pressure (35 K): 49.35 ± 0.14 J/K/mol | molar heat capacity at constant pressure (36.25 K): 51.78 ± 0.15 J/K/mol | molar heat capacity at constant pressure (38.52 K): 56.45 ± 0.16 J/K/mol | molar heat capacity at constant pressure (40 K): 59.26 ± 0.16 J/K/mol | molar heat capacity at constant pressure (40.96 K): 60.98 ± 0.17 J/K/mol | molar heat capacity at constant pressure (43.38 K): 65.91 ± 0.18 J/K/mol | molar heat capacity at constant pressure (45 K): 68.91 ± 0.18 J/K/mol | molar heat capacity at constant pressure (45.72 K): 70.28 ± 0.18 J/K/mol | molar heat capacity at constant pressure (48.12 K): 74.84 ± 0.19 J/K/mol | molar heat capacity at constant pressure (50 K): 78.34 ± 0.2 J/K/mol | molar heat capacity at constant pressure (50.55 K): 79.52 ± 0.2 J/K/mol | molar heat capacity at constant pressure (52.99 K): 83.98 ± 0.21 J/K/mol | molar heat capacity at constant pressure (55.45 K): 88.71 ± 0.22 J/K/mol | molar heat capacity at constant pressure (57.93 K): 93.42 ± 0.23 J/K/mol | molar heat capacity at constant pressure (60 K): 97.31 ± 0.24 J/K/mol | molar heat capacity at constant pressure (60.48 K): 98.18 ± 0.24 J/K/mol | molar heat capacity at constant pressure (62.91 K): 102.6 ± 0.3 J/K/mol | molar heat capacity at constant pressure (65.4 K): 106.9 ± 0.3 J/K/mol | molar heat capacity at constant pressure (67.89 K): 110.9 ± 0.3 J/K/mol | molar heat capacity at constant pressure (70 K): 114.4 ± 0.3 J/K/mol | molar heat capacity at constant pressure (70.37 K): 115.1 ± 0.3 J/K/mol | molar heat capacity at constant pressure (72.85 K): 119.2 ± 0.3 J/K/mol | molar heat capacity at constant pressure (75.32 K): 123.3 ± 0.3 J/K/mol | molar heat capacity at constant pressure (77.79 K): 128.2 ± 0.3 J/K/mol | molar heat capacity at constant pressure (80 K): 132 ± 0.3 J/K/mol | molar heat capacity at constant pressure (80.34 K): 132.4 ± 0.3 J/K/mol | molar heat capacity at constant pressure (82.75 K): 137.1 ± 0.3 J/K/mol | molar heat capacity at constant pressure (83.48 K): 138.3 ± 0.3 J/K/mol | molar heat capacity at constant pressure (85.22 K): 141.4 ± 0.3 J/K/mol | molar heat capacity at constant pressure (86.72 K): 144.2 ± 0.3 J/K/mol | molar heat capacity at constant pressure (88.86 K): 147.9 ± 0.3 J/K/mol | molar heat capacity at constant pressure (89.48 K): 148.9 ± 0.3 J/K/mol | molar heat capacity at constant pressure (90 K): 149.6 ± 0.4 J/K/mol | molar heat capacity at constant pressure (92.71 K): 153.8 ± 0.4 J/K/mol | molar heat capacity at constant pressure (95.7 K): 158.4 ± 0.4 J/K/mol | molar heat capacity at constant pressure (98.7 K): 162.9 ± 0.4 J/K/mol | molar heat capacity at constant pressure (100 K): 165.2 ± 0.4 J/K/mol | molar heat capacity at constant pressure (101.67 K): 167.8 ± 0.4 J/K/mol | molar heat capacity at constant pressure (104.65 K): 172.4 ± 0.4 J/K/mol | molar heat capacity at constant pressure (107.64 K): 177.1 ± 0.4 J/K/mol | molar heat capacity at constant pressure (110 K): 180.4 ± 0.4 J/K/mol | molar heat capacity at constant pressure (110.63 K): 181.6 ± 0.4 J/K/mol | molar heat capacity at constant pressure (113.62 K): 185.8 ± 0.4 J/K/mol | molar heat capacity at constant pressure (116.63 K): 190.1 ± 0.4 J/K/mol | molar heat capacity at constant pressure (119.63 K): 194.3 ± 0.4 J/K/mol | molar heat capacity at constant pressure (120 K): 195 ± 0.4 J/K/mol | molar heat capacity at constant pressure (122.64 K): 198.5 ± 0.4 J/K/mol | molar heat capacity at constant pressure (125.66 K): 202.7 ± 0.4 J/K/mol | molar heat capacity at constant pressure (128.69 K): 207.3 ± 0.4 J/K/mol | molar heat capacity at constant pressure (130 K): 209.2 ± 0.4 J/K/mol | molar heat capacity at constant pressure (131.7 K): 211.6 ± 0.4 J/K/mol | molar heat capacity at constant pressure (134.72 K): 215.9 ± 0.4 J/K/mol | molar heat capacity at constant pressure (137.75 K): 220.3 ± 0.4 J/K/mol | molar heat capacity at constant pressure (140 K): 223.3 ± 0.4 J/K/mol | molar heat capacity at constant pressure (140.77 K): 224.6 ± 0.4 J/K/mol | molar heat capacity at constant pressure (143.8 K): 229 ± 0.4 J/K/mol | molar heat capacity at constant pressure (146.83 K): 233 ± 0.4 J/K/mol | molar heat capacity at constant pressure (149.86 K): 237.2 ± 0.4 J/K/mol | molar heat capacity at constant pressure (150 K): 237.5 ± 0.4 J/K/mol | molar heat capacity at constant pressure (152.9 K): 241.7 ± 0.4 J/K/mol | molar heat capacity at constant pressure (155.94 K): 246 ± 0.5 J/K/mol | molar heat capacity at constant pressure (158.98 K): 250.1 ± 0.5 J/K/mol | molar heat capacity at constant pressure (160 K): 251.7 ± 0.5 J/K/mol | molar heat capacity at constant pressure (162.02 K): 254.2 ± 0.5 J/K/mol | molar heat capacity at constant pressure (165.06 K): 258.6 ± 0.5 J/K/mol | molar heat capacity at constant pressure (168.1 K): 263 ± 0.5 J/K/mol | molar heat capacity at constant pressure (170 K): 265.7 ± 0.5 J/K/mol | molar heat capacity at constant pressure (171.14 K): 267.3 ± 0.5 J/K/mol | molar heat capacity at constant pressure (174.19 K): 271.6 ± 0.5 J/K/mol | molar heat capacity at constant pressure (177.26 K): 276 ± 0.5 J/K/mol | molar heat capacity at constant pressure (180 K): 279.4 ± 0.5 J/K/mol | molar heat capacity at constant pressure (180.3 K): 279.9 ± 0.5 J/K/mol | molar heat capacity at constant pressure (183.34 K): 283.9 ± 0.5 J/K/mol | molar heat capacity at constant pressure (186.38 K): 288.1 ± 0.5 J/K/mol | molar heat capacity at constant pressure (189.42 K): 291.9 ± 0.5 J/K/mol | molar heat capacity at constant pressure (190 K): 293 ± 0.5 J/K/mol | molar heat capacity at constant pressure (192.46 K): 296.2 ± 0.5 J/K/mol | molar heat capacity at constant pressure (195.5 K): 300.5 ± 0.5 J/K/mol | molar heat capacity at constant pressure (198.54 K): 305 ± 0.5 J/K/mol | molar heat capacity at constant pressure (200 K): 306.7 ± 0.5 J/K/mol | molar heat capacity at constant pressure (201.58 K): 308.7 ± 0.5 J/K/mol | molar heat capacity at constant pressure (204.61 K): 313 ± 0.5 J/K/mol | molar heat capacity at constant pressure (207.64 K): 317.5 ± 0.5 J/K/mol | molar heat capacity at constant pressure (210 K): 320.5 ± 0.5 J/K/mol | molar heat capacity at constant pressure (210.68 K): 321.4 ± 0.5 J/K/mol | molar heat capacity at constant pressure (213.72 K): 325.8 ± 0.5 J/K/mol | molar heat capacity at constant pressure (216.77 K): 330 ± 0.5 J/K/mol | molar heat capacity at constant pressure (219.81 K): 334 ± 0.5 J/K/mol | molar heat capacity at constant pressure (220 K): 334.7 ± 0.5 J/K/mol | molar heat capacity at constant pressure (222.86 K): 338.3 ± 0.5 J/K/mol | molar heat capacity at constant pressure (225.93 K): 342.3 ± 0.5 J/K/mol | molar heat capacity at constant pressure (228.98 K): 346.6 ± 0.6 J/K/mol | molar heat capacity at constant pressure (230 K): 348.2 ± 0.6 J/K/mol | molar heat capacity at constant pressure (232.02 K): 350.4 ± 0.6 J/K/mol | molar heat capacity at constant pressure (235.06 K): 355 ± 0.6 J/K/mol | molar heat capacity at constant pressure (238.11 K): 359.4 ± 0.6 J/K/mol | molar heat capacity at constant pressure (240 K): 361.5 ± 0.6 J/K/mol | molar heat capacity at constant pressure (241.15 K): 363.5 ± 0.6 J/K/mol | molar heat capacity at constant pressure (244.2 K): 367.7 ± 0.6 J/K/mol | molar heat capacity at constant pressure (247.25 K): 371.5 ± 0.6 J/K/mol | molar heat capacity at constant pressure (250 K): 375.1 ± 0.6 J/K/mol | molar heat capacity at constant pressure (250.29 K): 375.6 ± 0.6 J/K/mol | molar heat capacity at constant pressure (253.34 K): 379.8 ± 0.6 J/K/mol | molar heat capacity at constant pressure (256.38 K): 383.9 ± 0.6 J/K/mol | molar heat capacity at constant pressure (259.42 K): 388.4 ± 0.6 J/K/mol | molar heat capacity at constant pressure (260 K): 389.1 ± 0.6 J/K/mol | molar heat capacity at constant pressure (262.46 K): 392.5 ± 0.6 J/K/mol | molar heat capacity at constant pressure (265.5 K): 396.6 ± 0.6 J/K/mol | molar heat capacity at constant pressure (268.54 K): 400.6 ± 0.6 J/K/mol | molar heat capacity at constant pressure (270 K): 403 ± 0.6 J/K/mol | molar heat capacity at constant pressure (271.58 K): 404.8 ± 0.6 J/K/mol | molar heat capacity at constant pressure (273.15 K): 407.4 ± 0.6 J/K/mol | molar heat capacity at constant pressure (274.65 K): 409.2 ± 0.6 J/K/mol | molar heat capacity at constant pressure (277.69 K): 413.5 ± 0.6 J/K/mol | molar heat capacity at constant pressure (280 K): 416.6 ± 0.6 J/K/mol | molar heat capacity at constant pressure (280.72 K): 417.4 ± 0.6 J/K/mol | molar heat capacity at constant pressure (283.75 K): 421.5 ± 0.6 J/K/mol | molar heat capacity at constant pressure (286.78 K): 425.5 ± 0.6 J/K/mol | molar heat capacity at constant pressure (289.8 K): 429.8 ± 0.6 J/K/mol | molar heat capacity at constant pressure (290 K): 429.9 ± 0.6 J/K/mol | molar heat capacity at constant pressure (292.82 K): 434 ± 0.6 J/K/mol | molar heat capacity at constant pressure (295.84 K): 438.2 ± 0.6 J/K/mol | molar heat capacity at constant pressure (298.15 K): 441.1 ± 0.6 J/K/mol | molar heat capacity at constant pressure (298.86 K): 442.2 ± 0.6 J/K/mol | molar heat capacity at constant pressure (302.37 K): 447.3 ± 0.7 J/K/mol | molar heat capacity at constant pressure (306.36 K): 453.1 ± 0.7 J/K/mol | molar heat capacity at constant pressure (310 K): 458.6 ± 0.7 J/K/mol | molar heat capacity at constant pressure (310.36 K): 459.1 ± 0.7 J/K/mol | molar heat capacity at constant pressure (314.34 K): 464.5 ± 0.7 J/K/mol | molar heat capacity at constant pressure (318.32 K): 470 ± 0.7 J/K/mol | molar heat capacity at constant pressure (320 K): 472.1 ± 0.7 J/K/mol | molar heat capacity at constant pressure (322 K): 474.1 ± 0.7 J/K/mol | molar heat capacity at constant pressure (322.29 K): 474.7 ± 0.7 J/K/mol
